{"source": "paper PMC4831868", "about": "(Cell reports, 2012)", "target": "pHipA (Escherichia coli, UniProt P23874)", "sequence (P23874 whole entry, looked up)": "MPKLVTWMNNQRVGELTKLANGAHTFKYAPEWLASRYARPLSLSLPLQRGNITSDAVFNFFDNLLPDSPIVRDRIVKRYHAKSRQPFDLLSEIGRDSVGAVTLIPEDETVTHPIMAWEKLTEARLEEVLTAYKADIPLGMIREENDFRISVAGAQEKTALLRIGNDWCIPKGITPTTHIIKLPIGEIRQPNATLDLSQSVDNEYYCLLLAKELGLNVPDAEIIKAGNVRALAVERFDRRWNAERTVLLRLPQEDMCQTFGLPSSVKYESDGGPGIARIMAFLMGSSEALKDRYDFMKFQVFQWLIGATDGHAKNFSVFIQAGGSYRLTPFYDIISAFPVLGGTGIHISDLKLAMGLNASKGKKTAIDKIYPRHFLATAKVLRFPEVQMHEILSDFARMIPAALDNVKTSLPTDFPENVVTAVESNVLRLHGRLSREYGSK", "experiment": "ITC", "settings": "no binding", "data": [{"smiles": "Nc1ncnc2c1ncn2[C@@H]1O[C@H](COP(=O)(O)OP(=O)(O)NP(=O)(O)O)[C@@H](O)[C@H]1O", "note": "[AMPPNP]", "values": [{"measurement": "ITC", "value": "revealed no interaction between ATP or the nonhydrolyzable ATP analogue, AMPPNP"}]}]}
